Source: US12389931B2, “Oyster peptide with effect of improving sexual function and preparation method thereof” (priority 2019, dated 2025)

What was measured:
[1] = tested on: dihydrotestosterone secretion in TM3 cells; assay: Dihydrotestosterone secreted by TM3 cells (ELISA); type: cell-based, mouse; settings: sildenafil 200 μg/mL, positive control in dihydrotestosterone test, FIG. 16
Procedure: 3. Dihydrotestosterone (DHT) Content
TM3 cells was cultured with the oyster peptide culture solution for 24 h, the obtained culture solution was centrifuged, a supernatant was taken and mixed uniformly, and the content of dihydrotestosterone was detected according to instructions of ELISA kit.
Operation procedure for detecting dihydrotestosterone: (1) Standards were added into standard wells at 50 μL/well. (2) 40 μL of sample diluent was added to sample wells and then 10 μL of the sample to be tested was added, and nothing was added to the blank wells. (3) The reaction wells were sealed with the plate-sealing film and incubated at 37° C. for 45 min. […] (10) A stop solution was added at 50 μL/well and mixed uniformly and then the OD450 value was measured.
Dihydrotestosterone is a steroid hormone secreted by testes and a main male hormone in the human body, is related to the development of male secondary sexual characteristics and plays an important role in maintaining normal sexual desire. In this test example, the oyster peptide culture solutions of Example 1 at different concentrations and the oyster peptide culture solutions of Examples 1-3 and Comparative Examples 1-4 at the same concentration were used to treat TM3 cells for 24 h, and then the supernatants of cells were collected, and the contents of dihydrotestosterone secreted by the cells were measured by the ELISA method. […]

NO content in TM3 cells = NO content in TM3 cells (NO determination kit); type: cell-based, mouse; settings: sildenafil 200 μg/mL, vs control group (p<0.05), FIG. 18
Procedure: 4. Detection of NO Content
TM3 cells were cultured with the oyster peptide culture solution for 24 h, the obtained culture solution was centrifuged, a supernatant was taken and mixed uniformly, and the content of NO was detected according to instructions of NO determination kit.
Operation procedure for detecting NO: (1) Reagent preparation: all reagents were taken out and equilibrated to room temperature for use. (2) 100 μM standard working solution: 5 μL of concentrated standard was added to 495 μL of reaction buffer and mixed well. […] After the incubation was over, the microplate was taken out, placed into an incubator at 37° C. and further incubated for 60 min, and then taken out and placed into a microplate reader for reading at 540 nm. (5) Quantitative calculation of total nitric oxide in samples:
NO is a small fat-soluble molecule with unstable chemical properties and is produced by a catalyzed reaction of nitric oxide synthase in a body, and it can cause the expansion of blood vessels in the body. […] The effect of the oyster peptide on the NO content in TM3 cells was detected according to the instructions of NO determination kit. […]

CCCc1nn(C)c2c(=O)[nH]c(-c3cc(S(=O)(=O)N4CCN(C)CC4)ccc3OCC)nc12 [sildenafil]
dihydrotestosterone secreted by TM3 cells [1]: significantly promoting | NO content in TM3 cells (NO content in TM3 cells): increased significantly
